For one series, the target named is T1, ADAMTS4 (Homo sapiens, UniProt O75173).
T1 construct: Human recombinant full-length FLAG-tagged ADAMTS4 and ADAMTS5 were expressed in HEK293T cells; FLAG; made in house; host or cells: HEK293T cells
T1 sequence (O75173 213-837): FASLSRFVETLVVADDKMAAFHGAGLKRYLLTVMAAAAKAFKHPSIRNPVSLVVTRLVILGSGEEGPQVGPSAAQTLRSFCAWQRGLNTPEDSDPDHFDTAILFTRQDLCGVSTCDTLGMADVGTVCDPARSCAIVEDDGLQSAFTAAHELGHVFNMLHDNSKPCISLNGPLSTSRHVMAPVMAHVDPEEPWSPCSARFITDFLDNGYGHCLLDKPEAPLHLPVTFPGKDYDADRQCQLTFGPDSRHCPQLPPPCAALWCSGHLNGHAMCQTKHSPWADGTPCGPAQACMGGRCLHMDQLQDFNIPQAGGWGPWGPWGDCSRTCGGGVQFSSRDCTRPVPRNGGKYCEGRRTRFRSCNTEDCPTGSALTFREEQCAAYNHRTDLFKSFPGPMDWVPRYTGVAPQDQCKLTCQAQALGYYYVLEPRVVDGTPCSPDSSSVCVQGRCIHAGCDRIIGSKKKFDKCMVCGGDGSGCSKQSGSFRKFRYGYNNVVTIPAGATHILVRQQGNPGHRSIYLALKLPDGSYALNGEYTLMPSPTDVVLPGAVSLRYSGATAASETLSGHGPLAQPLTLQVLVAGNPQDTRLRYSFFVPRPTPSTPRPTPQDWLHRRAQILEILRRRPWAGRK
Nature of the series: Versicanase assay (V1-5GAG, versikine sandwich ELISA). It is filed as biochemical. The settings on record: 100 µM; compared to DMSO control. Here is the method:
(§1) Human recombinant full-length FLAG-tagged ADAMTS4 and ADAMTS5 were expressed in HEK293T cells (Thermo Fisher Scientific) and purified by anti-FLAG immunoaffinity chromatography as before. Concentrations of active proteases were determined by active-site titrations with known concentrations of TIMP-3 (Bio-Techne, 973-TM-010), using QF peptides as substrates. V1-5GAG, a truncated version of versican V1 isoform comprising residues 21–694 and containing a C-terminal 6x His tag[67], was expressed in HE293T cells and purified by immobilized metal affinity chromatography as before.
(§2) Compounds 1–4 (100 µM) or DMSO were incubated with ADAMTS4 (5 nM) or ADAMTS5 (0.4 nM) for 2 h at 37 °C, before addition of V1-5GAG (50 nM). At each time point, reactions were stopped by addition of ethylenediaminetetraacetic acid and ADAMTS-generated versican fragments (versikine) quantified by sandwich ELISA as before[29],[30],[38] using anti-DPEAAE neoepitope antibody (Life Technologies, PA1-1748 A, 5 µg/ml) and polyclonal anti-versican antibody (Abcam, ab171887, 3 µg/ml). For each reaction, the amount of versikine generated was derived from a standard curve (0–1.56 nM) of V1-5GAG completely digested with ADAMTS5. Initial velocities were calculated from the concentration of versikine generated as a function of reaction time. Percent of inhibition was calculated from the DMSO control reactions. IC50 values were determined using the formula: vi/v0 = 1/(1 + [I]/IC50) where vi is the initial velocity of substrate cleavage in the presence of the inhibitor at concentration [I] and v0 is the initial velocity in the presence of an equal concentration (v/v) of DMSO.

The next series has as its target T2, ADAMTS5 (Homo sapiens, UniProt Q9UNA0).
T2 construct: Human recombinant full-length FLAG-tagged ADAMTS4 and ADAMTS5 were expressed in HEK293T cells; FLAG; made in house; host or cells: HEK293T cells
T2 sequence (Q9UNA0 262-930): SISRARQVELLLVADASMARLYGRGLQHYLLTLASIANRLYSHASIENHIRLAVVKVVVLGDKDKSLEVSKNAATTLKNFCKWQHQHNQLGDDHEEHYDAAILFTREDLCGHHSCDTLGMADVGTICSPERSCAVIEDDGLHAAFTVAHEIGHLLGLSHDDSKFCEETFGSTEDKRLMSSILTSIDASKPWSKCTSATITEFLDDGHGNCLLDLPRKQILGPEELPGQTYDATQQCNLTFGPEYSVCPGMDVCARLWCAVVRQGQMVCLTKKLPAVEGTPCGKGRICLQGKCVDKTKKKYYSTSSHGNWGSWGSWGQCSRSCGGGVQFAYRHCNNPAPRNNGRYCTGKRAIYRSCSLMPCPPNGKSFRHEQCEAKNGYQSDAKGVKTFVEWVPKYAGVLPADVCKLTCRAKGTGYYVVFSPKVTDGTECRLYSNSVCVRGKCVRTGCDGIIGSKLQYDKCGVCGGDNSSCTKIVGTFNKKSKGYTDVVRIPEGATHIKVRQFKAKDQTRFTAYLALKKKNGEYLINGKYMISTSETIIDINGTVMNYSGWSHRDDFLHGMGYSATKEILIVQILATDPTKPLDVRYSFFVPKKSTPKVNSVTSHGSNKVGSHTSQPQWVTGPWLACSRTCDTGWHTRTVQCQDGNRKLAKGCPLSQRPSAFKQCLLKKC
Described as above. It is filed as biochemical. The procedure: as §1, §2

In series [1] the test system is porcine cartilage explants. Nature of the series: Cell viability MTS assay. The settings on record: 100 µM; 72 h; vs DMSO control. The class given is cell-based, pig. The procedure:
Porcine articular cartilage from the joints of 3–9 month old pigs was supplied by a local abattoir within 2 h of slaughter and dissected into small pieces approximately 3 mm long and 3–4 mm wide. Each piece weighed roughly 10 mg. After dissection, the cartilage was allowed to acclimatize for 24 h at 37 °C under 5% CO2 in Dulbecco’s Modified Eagle Medium (DMEM) containing 100 U/ml penicillin, 100 µg/ml streptomycin, 10% fetal bovine serum (FBS).
Cell viability was assessed using CellTiter® 96 Aqueous One Solution Cell Proliferation Assay (Promega, G3582) following the manufacturer’s protocol. The assay is based on the reduction of [3-(4,5-dimethylthiazol-2-yl)-5-(3-carboxymethoxyphenyl)-2-(4-sulfophenyl)-2 H-tetrazolium] (MTS) and phenazine ethosulfate into formazan. Compounds 2 and 4b, GM6001 (Merck, 364206) (10–100 µM), or DMSO control were incubated in 48-well Nunc™ plates (Thermo Fisher Scientific,150687) with HEK293T cells, human non-OA chondrocytes, porcine cartilage explants, or human OA cartilage explants for 72 h. At least 3 independent experiments were carried out with 3 technical replicates each. For experiments involving human samples, independent experiments were carried out on 3 different donors. Absorbance at 490 nm was measured on a SpectraMax i3x Multi-Mode Platform (Molecular Devices). Cell viability was normalized to DMSO controls.
In general terms: Tetrazolium assays rely on reduction of a dye to a coloured formazan, in cell work by metabolically active cells.

As a reminder, the inhibition is the percentage by which the read-out fell short of the control. One may read the IC50 as the concentration needed to halve the response being measured.

In the case of `CCC(C)N(Cc1cn(CCCO[C@@H]2O[C@H](CO)[C@@H](O[C@@H]3O[C@H](CO)[C@H](O)[C@H](O)[C@H]3O)[C@H](O)[C@H]2NC(C)=O)nn1)S(=O)(=O)c1ccc(-c2ccccc2)cc1` (stereo partly drawn) [compound 2, N-((2R,3R,4R,5 S,6R)-2-(3-(4-((N-(sec-butyl)-[1,1’-biphenyl]-4-sulfonamido)methyl)-1H-1,2,3-triazol-1-yl)propoxy)-4-hydroxy-6-(hydroxymethyl)-5-(((2 S,3R,4 S,5R,6R)-3,4,5-trihydroxy-6-(hydroxymethyl)tetrahydro-2 H-pyran-2-yl)oxy)tetrahydro-2 H-pyran-3-yl)acetamide], the “inhibition of ADAMTS4 versicanase activity” value on ADAMTS4 is listed as “sparing ADAMTS4”. Moreover, on ADAMTS5 (100 µM, compared to DMSO control), the inhibition at 100 µM was 76%. Further, the “IC50 of compound 2 relative to parent compound 4b (higher)” value at ADAMTS5 (ADAMTS5 versicanase activity) was ~ 4 fold. For the same molecule, the 50% inhibitory concentration (IC50) at ADAMTS5 (read-out: IC50 for inhibition of ADAMTS5 versicanase activity) amounted to 35 ± 4.8 µM. Besides, the “decrease of cell viability” value in series [1] is listed as “did not exhibit cytotoxicity”.

The values are drawn from article PMC12769565, “Design, synthesis and biological activity of glycoconjugated ADAMTS5 exosite inhibitors: applications in osteoarthritis and ovarian cancer models” (Scientific Reports, 2025).
